In patent US20240368150A1 (Hoffmann-La Roche Inc., priority 2021, published 2024):
Counter-ions that a name gives are not always drawn. Like-named read-outs stand apart in the source and are kept apart here.

Key:
primary human T-cells [1] = experiment: Proliferation assay after 5 days (CellTiter-Glo, CD3 stimulation; PBS counter screen); type: cell-based; settings: CD3 stimulation; for Emax: read-out: Emax proliferation (% activation); for EC50: primary human T-cells, CellTiter-Glo after 5 days, EC50 of fitted sigmoidal curve, read-out: Tcell Proliferation CD3 EC50
Summary of the method: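 Cpds added to medium-only plates; 5 d culture. Readout CellTiter-Glo 2.0 (equal vol), RT 45 min equilibration, 15 min rocking RT, luminescence. ATP signal taken as cell number.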

primary human T-cells [2] = tested on: primary human T-cells
[3] = Homo sapiens, T-cell, 120 h, 5 days, normalized to reference compound A1 as stimulator control = 100%, DMSO neutral control

Compound	EC50 (primary human T-cells [2]) [nM]	Emax (primary human T-cells [1]; [3]) [%]	EC50 (primary human T-cells [1]; Homo sapiens, T-cell, 120 h) [nM]	Emax proliferation (% activation) (primary human T-cells [1]; 5 days, normalized to reference compound A1 as stimulator control = 100%, DMSO neutral control)	EC50 (primary human T-cells [1]) [nM]
COC(=O)N1CC2CC(c3nnc(-c4ccc5c(c4)N(Cc4ccc(OC(F)(F)C(F)F)cc4)C(=O)[C@@H](N)CS5(=O)=O)o3)(C2)C1 [Example 443, Methyl 1-[5-[(3R)-3-amino-1,1,4-trioxo-5-[[4-(1,1,2,2-tetrafluoroethoxy)phenyl]methyl]-2,3-dihydro-1λ^6,5-benzothiazepin-7-yl]-1,3,4-oxadiazol-2-yl]-3-azabicyclo[3.1.1]heptane-3-carboxylate]	> 10000	97	3850	–	–
CC(C)(C)c1nnc(-c2ccc3c(c2)N(Cc2ccc(N4CCOCC4)cc2)C(=O)[C@@H](N)CS3(=O)=O)o1 [Example 446, (3R)-3-amino-7-(5-tert-butyl-1,3,4-oxadiazol-2-yl)-5-[(4-morpholinophenyl)methyl]-1,1-dioxo-2,3-dihydro-1λ^6,5-benzothiazepin-4-one]	7570	51	9900	–	–
COC1CCN(c2ccc(CN3C(=O)[C@@H](N)CS(=O)(=O)c4ccc(-c5nnc(C(C)(C)C)o5)cc43)cc2)CC1 [Example 447, (3R)-3-amino-7-(5-tert-butyl-1,3,4-oxadiazol-2-yl)-5-[[4-(4-methoxy-1-piperidyl)phenyl]methyl]-1,1-dioxo-2,3-dihydro-1λ^6,5-benzothiazepin-4-one]	2540	113	> 10000	–	–
C#CCC(C)(C)c1nnc(-c2cc3c(cc2F)S(=O)(=O)C[C@H](N)C(=O)N3Cc2ccc(OC(F)(F)F)cc2)o1 [Example 450, (3R)-3-amino-7-[5-(1,1-dimethylbut-3-ynyl)-1,3,4-oxadiazol-2-yl]-8-fluoro-1,1-dioxo-5-[[4-(trifluoromethoxy)phenyl]methyl]-2,3-dihydro-1λ^6,5-benzothiazepin-4-one]	73.1	114	71.5	–	–
CC(C)(C)c1nnc(-c2cc3c(cc2F)[S+]([O-])C[C@H](N)C(=O)N3Cc2ccc(OC(F)(F)F)cc2)o1 (stereo partly drawn) [Example 453]	178	–	–	136	444
CCN1CCCC(Nc2nnc(-c3cc4c(cc3F)S(=O)(=O)C[C@H](N)C(=O)N4Cc3ccc(Cl)cc3)o2)C1 (stereo partly drawn) [Example 457, (3R)-3-amino-5-[(4-chlorophenyl)methyl]-7-[5-[(1-ethyl-3-piperidyl)amino]-1,3,4-oxadiazol-2-yl]-8-fluoro-1,1-dioxo-2,3-dihydro-1λ^6,5-benzothiazepin-4-one]	4880	50	1140	–	–
CN(C)c1nnc(-c2cc3c(cc2F)S(=O)(=O)C[C@H](N)C(=O)N3Cc2ccc(Cl)cc2)o1 [Example 465, (3R)-3-amino-5-[(4-chlorophenyl)methyl]-7-[5-(dimethylamino)-1,3,4-oxadiazol-2-yl]-8-fluoro-1,1-dioxo-2,3-dihydro-1λ^6,5-benzothiazepin-4-one]	1170	100	171	–	–
N[C@H]1CS(=O)(=O)c2cc(F)c(-c3nnc(N4C[C@H]5C[C@@H](C4)C5(F)F)o3)cc2N(Cc2ccc(Cl)cc2)C1=O [Example 469, (3R)-3-amino-5-[(4-chlorophenyl)methyl]-8-fluoro-1,1-dioxo-7-[5-[(1R,5S)-6,6-difluoro-3-azabicyclo[3.1.1]heptan-3-yl]-1,3,4-oxadiazol-2-yl]-2,3-dihydro-1λ^6,5-benzothiazepin-4-one]	2550	105	170	–	–
CN1CCN(c2nnc(-c3cc4c(cc3F)S(=O)(=O)C[C@H](N)C(=O)N4Cc3ccc(Cl)cc3)o2)CC1 [Example 470, (3R)-3-amino-5-[(4-chlorophenyl)methyl]-8-fluoro-7-[5-(4-methylpiperazin-1-yl)-1,3,4-oxadiazol-2-yl]-1,1-dioxo-2,3-dihydro-1λ^6,5-benzothiazepin-4-one]	551	101	1410	–	–
CC(=O)N1CCN(c2nnc(-c3cc4c(cc3F)S(=O)(=O)C[C@H](N)C(=O)N4Cc3ccc(Cl)cc3)o2)CC1 [Example 471, (3R)-7-[5-(4-acetylpiperazin-1-yl)-1,3,4-oxadiazol-2-yl]-3-amino-5-[(4-chlorophenyl)methyl]-8-fluoro-1,1-dioxo-2,3-dihydro-1λ^6.5-benzothiazepin-4-one]	> 10000	65	8030	–	–
N[C@H]1CS(=O)(=O)c2cc(F)c(-c3nnc(N4CC5COCC(C4)C5(F)F)o3)cc2N(Cc2ccc(Cl)cc2)C1=O [Example 476, (3R)-3-amino-5-[(4-chlorophenyl)methyl]-7-[5-(9,9-difluoro-3-oxa-7-azabicyclo[3.3.1]nonan-7-yl)-1,3,4-oxadiazol-2-yl]-8-fluoro-1,1-dioxo-2,3-dihydro-1λ^6,5-benzothiazepin-4-one]	8680	95	455	–	–

Continued by falling EC50 (primary human T-cells [2]), values first:

EC50 (primary human T-cells [2]) [nM]	Compound	Emax (primary human T-cells [1]; [3]) [%]	EC50 (primary human T-cells [1]; Homo sapiens, T-cell, 120 h) [nM]	Emax proliferation (% activation) (primary human T-cells [1]; 5 days, normalized to reference compound A1 as stimulator control = 100%, DMSO neutral control)	EC50 (primary human T-cells [1]) [nM]
9560	CC(C)(C)c1nnc(-c2ccc3c(c2)N(Cc2ccc(N4CCN(C5CC5)CC4)cc2)C(=O)[C@@H](N)CS3(=O)=O)o1 [Example 445, (3R)-3-amino-7-(5-tert-butyl-1,3,4-oxadiazol-2-yl)-5-[[4-(4-cyclopropylpiperazin-1-yl)phenyl]methyl]-1,1-dioxo-2,3-dihydro-1λ^6,5-benzothiazepin-4-one]	88	4250	–	–
4620	CC(C)(C)c1nnc(-c2ccc3c(c2)N(Cc2ccc(N4CCCC4)cc2)C(=O)[C@@H](N)CS3(=O)=O)o1 [Example 448, (3R)-3-amino-7-(5-tert-butyl-1,3,4-oxadiazol-2-yl)-1,1-dioxo-5-[(4-pyrrolidin-1-ylphenyl)methyl]-2,3-dihydro-1λ^6.5-benzothiazepin-4-one]	94	1960	–	–
4240	N[C@H]1CS(=O)(=O)c2cc(F)c(-c3nnc(N4CCC5(CC4)CC(F)(F)CN5)o3)cc2N(Cc2ccc(Cl)cc2)C1=O [Example 475, (3R)-3-amino-5-[(4-chlorophenyl)methyl]-7-[5-(3,3-difluoro-1,8-diazaspiro[4.5]decan-8-yl)-1,3,4-oxadiazol-2-yl]-8-fluoro-1,1-dioxo-2,3-dihydro-1λ^6,5-benzothiazepin-4-one; hydrochloride]	85	941	–	–
3780	CC1(C#N)CCN(c2nnc(-c3cc4c(cc3F)S(=O)(=O)C[C@H](N)C(=O)N4Cc3ccc(Cl)cc3)o2)CC1 [Example 468, 4-methyl-1-[5-[(3R)-3-amino-5-[(4-chlorophenyl)methyl]-8-fluoro-1,1,4-trioxo-2,3-dihydro-1λ^6,5-benzothiazepin-7-yl]-1,3,4-oxadiazol-2-yl]piperidine-4-carbonitrile]	127	2670	–	–
2700	NC1CN(c2nnc(-c3cc4c(cc3F)S(=O)(=O)C[C@H](N)C(=O)N4Cc3ccc(Cl)cc3)o2)CC(F)(F)C1 (stereo partly drawn) [Example 477, (3R)-3-amino-7-[5-(5-amino-3,3-difluoro-1-piperidyl)-1,3,4-oxadiazol-2-yl]-5-[(4-chlorophenyl)methyl]-8-fluoro-1,1-dioxo-2,3-dihydro-1λ^6.5-benzothiazepin-4-one]	77	3490	–	–
2610	CC1(C)CN(c2nnc(-c3cc4c(cc3F)S(=O)(=O)C[C@H](N)C(=O)N4Cc3ccc(Cl)cc3)o2)CCO1 [Example 473, (3R)-3-amino-5-[(4-chlorophenyl)methyl]-7-[5-(2,2-dimethylmorpholin-4-yl)-1,3,4-oxadiazol-2-yl]-8-fluoro-1,1-dioxo-2,3-dihydro-1λ^6,5-benzothiazepin-4-one]	126	403	–	–
832	N[C@H]1CS(=O)(=O)c2cc(F)c(-c3nnc(N4CCC5(CC4)COC5)o3)cc2N(Cc2ccc(Cl)cc2)C1=O [Example 478, (3R)-3-amino-5-[(4-chlorophenyl)methyl]-8-fluoro-7-[5-(2-oxa-7-azaspiro[3.5]nonan-7-yl)-1,3,4-oxadiazol-2-yl]-1,1-dioxo-2,3-dihydro-1λ^6,5-benzothiazepin-4-one]	87	1320	–	–
509	N[C@H]1CS(=O)(=O)c2cc(F)c(-c3nnc(NC4CCN(C5CC5)CC4)o3)cc2N(Cc2ccc(Cl)cc2)C1=O [Example 460, (3R)-3-amino-5-[(4-chlorophenyl)methyl]-7-[5-[(1-cyclopropyl-4-piperidyl)amino]-1,3,4-oxadiazol-2-yl]-8-fluoro-1,1-dioxo-2,3-dihydro-1λ^6,5-benzothiazepin-4-one]	55	5700	–	–
474	NC1CN(c2nnc(-c3cc4c(cc3F)S(=O)(=O)C[C@H](N)C(=O)N4Cc3ccc(Cl)cc3)o2)CCC1(F)F (stereo partly drawn) [Example 467, (3R)-3-amino-7-[5-(3-amino-4,4-difluoro-1-piperidyl)-1,3,4-oxadiazol-2-yl]-5-[(4-chlorophenyl)methyl]-8-fluoro-1,1-dioxo-2,3-dihydro-1λ^6,5-benzothiazepin-4-one]	102	880	–	–
251	N[C@H]1CS(=O)(=O)c2cc(F)c(-c3nnc(N4CC5(CCC5)C4)o3)cc2N(Cc2ccc(Cl)cc2)C1=O [Example 474]	138	135	–	–
109	N[C@H]1CS(=O)(=O)c2cc(F)c(-c3nnc(N4CCOC5(CC5)C4)o3)cc2N(Cc2ccc(Cl)cc2)C1=O [Example 472, (3R)-3-amino-5-[(4-chlorophenyl)methyl]-8-fluoro-7-[5-(4-oxa-7-azaspiro[2.5]octan-7-yl)-1,3,4-oxadiazol-2-yl]-1,1-dioxo-2,3-dihydro-1λ^6,5-benzothiazepin-4-one]	115	116	–	–
